The structures appear in SMILES notation. Counter-ions that a name gives are not always drawn.

The first assay has as its system HTT. Kind of assay: Mini-gene reporter assay-HTT (firefly luciferase, exon inclusion). The class given is cell-based. The following applies: HTT Minigene, 5 μM; read-out: % Efficacy at 5 μM. An excerpt:
Mini-gene reporter constructs for each target site were constructed by first PCR amplifying the region-of-interest including the sequence of the alternatively skipped, sequences of the immediate upstream and downstream introns, and sequences of the immediate upstream and downstream exons. Then the 3′end of the amplified sequence was ligated to a firefly luciferase reporter gene and cloned into the pcDNA3.1 vector backbone. The final reporter construct was transiently transfected into HEK293 cells using Lipofectamine 3000 transfection reagents. Compounds that can induce the inclusion of the skipped exon in the reporter construct would increase the reporter firefly luciferase activity.
Test compounds were diluted in duplicates and dispensed into an assay plate. Transient mini-gene reporter cell line stock was resuspended and dispensed into the assay plate. Assay plates were then centrifuged and incubated. A luciferase reagent (e.g. ONE-Glo firefly luciferase reagent from Promega®) was added to the assay plate and the luminescence (RLU) signals recorded. EC50 values were determined by curve fitting in Levenberg-Marquardt algorithm.
Background: A reporter such as luciferase makes a cellular process visible.
In the case of `COc1cc(-c2ccc(-c3ccc(C4CN(Cc5cccnc5)C4)nn3)c(O)c2)cc2cn(C)nc12` [Compound 130], the Emax at 5 µM lay in the range of 25 to 75%.

Take `COCC1CCC(N2CC(c3ccc(-c4ccc(-c5cc(OC)c6nn(C)cc6c5)cc4O)nn3)C2)CC1` (stereo not shown) [Compound 179]: the Emax at 5 µM lay within 25 to 75%.

In the case of `CCCn1cc(CN2CC(c3ccc(-c4ccc(-c5cc(F)c6nc(C)cn6c5)cc4O)nn3)C2)cn1` [Compound 91], the Emax at 5 µM was 25 to 75%.

As for `COc1cc(-c2ccc(-c3ccc(C4CN(C5CCC(C)C5)C4)nn3)c(O)c2)cc2cn(C)nc12` (stereo not shown) [Compound 135], the Emax at 5 µM lay within 25 to 75%.

For the compound `COc1cc(-c2ccc(-c3ccc(C4CN(Cc5ccc(CO)cc5)C4)nn3)c(O)c2)cc2cn(C)nc12` [Compound 181], the Emax at 5 µM was 25 to 75%.

With `COc1cc(-c2ccc(-c3ccc(C4CN(CC5C6CCCCC65)C4)nn3)c(O)c2)cc2cn(C)nc12` (stereo not shown) [Compound 190], the Emax at 5 µM was 25 to 75%.

For `COc1cc(-c2ccc(-c3ccc(C4CN(Cc5cnc(C)o5)C4)nn3)c(O)c2)cc2cn(C)nc12` [Compound 162], the Emax at 5 µM was in the range of 25 to 75%.

For the compound `COc1cc(-c2ccc(-c3ccc(C4CN(Cc5cnsc5)C4)nn3)c(O)c2)cc2cn(C)nc12` [Compound 182], the Emax at 5 µM was 25 to 75%.

For `Cc1cn2cc(-c3ccc(-c4ccc(C5CN(C6CCCOCC6)C5)nn4)c(O)c3)cc(F)c2n1` (stereo not shown) [Compound 99], the Emax at 5 µM is > 750%.

Take `COc1cc(-c2ccc(-c3ccc(C4CN(Cc5nc(C)ccc5O)C4)nn3)c(O)c2)cc2cn(C)nc12` [Compound 149]: the Emax at 5 µM lay in the range of 25 to 75%.

On to `Cc1cn2cc(-c3ccc(-c4ccc(C5CN(C(C)CCn6cccn6)C5)nn4)c(O)c3)cc(F)c2n1` (stereo not shown) [Compound 107], for which the Emax at 5 µM lay within 25 to 75%.

As for `COc1cc(-c2ccc(-c3ccc(C4CN(CC5CCSCC5)C4)nn3)c(O)c2)cc2cn(C)nc12` [Compound 167], the Emax at 5 µM was 25 to 75%.

Take `COc1cc(-c2ccc(-c3ccc(C4CN(C(C)CC5CCOC5)C4)nn3)c(O)c2)cc2cn(C)nc12` (stereo not shown) [Compound 158]: the Emax at 5 µM is > 750%.

In the case of `Cc1cn2cc(-c3ccc(-c4ccc(C5CN(Cc6cn(C(C)C)nn6)C5)nn4)c(O)c3)cc(F)c2n1` [Compound 116], the Emax at 5 µM is 25 to 75%.

Regarding `Cc1cn2cc(-c3ccc(-c4ccc(C5CN(Cc6ccn(C)n6)C5)nn4)c(O)c3)cc(F)c2n1` [Compound 80], the Emax at 5 µM was 25 to 75%.

For the compound `Cc1cn2cc(-c3ccc(-c4ccc(C5CN(C6CCOCC6C)C5)nn4)c(O)c3)cc(F)c2n1` (stereo not shown) [Compound 85], the Emax at 5 µM is > 750%.

Take `CCn1ccc(CN2CC(c3ccc(-c4ccc(-c5cc(OC)c6nn(C)cc6c5)cc4O)nn3)C2)c1` [Compound 152]: the Emax at 5 µM was < 25%.

In the case of `CCC(C)(CN1CC(c2ccc(-c3ccc(-c4cc(OC)c5nn(C)cc5c4)cc3O)nn2)C1)OC` (stereo not shown) [Compound 178], the Emax at 5 µM is < 25%.

As for `COc1cc(-c2ccc(-c3ccc(C4CN(Cc5ocnc5C)C4)nn3)c(O)c2)cc2cn(C)nc12` [Compound 170], the Emax at 5 µM is < 25%.

For the compound `Cc1cn2cc(-c3ccc(-c4ccc(C5CN(CC6CCSC6)C5)nn4)c(O)c3)cc(F)c2n1` (stereo not shown) [Compound 111], the Emax at 5 µM is > 750%.

Take `COc1cc(-c2ccc(-c3ccc(C4CN(Cc5cc6n(n5)CCC6)C4)nn3)c(O)c2)cc2cn(C)nc12` [Compound 184]: the Emax at 5 µM lay within 25 to 75%.

In the case of `COc1cc(-c2ccc(-c3ccc(C4CN(C(C)c5ccccn5)C4)nn3)c(O)c2)cc2cn(C)nc12` (stereo not shown) [Compound 138], the Emax at 5 µM is 25 to 75%.

Turning to `CCCC(CN1CC(c2ccc(-c3ccc(-c4cc(OC)c5nn(C)cc5c4)cc3O)nn2)C1)OC` (stereo not shown) [Compound 176], the Emax at 5 µM fell in the range of 25 to 75%.

As for `Cc1cn2cc(-c3ccc(-c4ccc(C5CN(CC6CCSCC6)C5)nn4)c(O)c3)cc(F)c2n1` [Compound 109], the Emax at 5 µM was > 750%.

On to `Cc1cn2cc(-c3ccc(-c4ccc(C5CN(C(C)C6CCCCO6)C5)nn4)c(O)c3)cc(F)c2n1` (stereo not shown) [Compound 122], for which the Emax at 5 µM fell in the range of 25 to 75%.

Still in this assay, the particulars now being: Homo sapiens; HTT mini-gene firefly luciferase reporter transiently transfected into HEK293 cells.
As a reminder, the EC50 is the concentration that produces a half-maximal response. A lower EC50 goes with an effect from little substance. As for `COc1cc(-c2ccc(-c3ccc(C4CN(C5CCOCC5)C4)nn3)c(O)c2)cc2cn(C)nc12` [Compound 49, 5-(7-methoxy-2-methyl-2H-indazol-5-yl)-2-{6-[1-(oxan-4-yl)azetidin-3-yl]pyridazin-3-yl}phenol], the EC50 lay in the range of 500 to 1000 nM.

The compound `CCN1CC(c2ccc(-c3ccc(-c4ccc5nn(C)cc5n4)cc3O)nn2)C1` [Compound 50, 2-[6-(1-ethylazetidin-3-yl)pyridazin-3-yl]-5-{2-methyl-2H-pyrazolo[4,3-b]pyridin-5-yl}phenol] yielded an EC50 of 50 to 500 nM.

`Cc1cn2cc(-c3ccc(-c4ccc(C5CNC5)nn4)c(O)c3)ncc2n1` [Compound 33, 2-[6-(azetidin-3-yl)pyridazin-3-yl]-5-{2-methylimidazo[1,2-a]pyrazin-6-yl}phenol] yielded an EC50 of 500 to 1000 nM.

As for `COc1nc(-c2ccc(-c3ccc(C4CN(C(C)C)C4)nn3)c(O)c2)cc2cn(C)nc12` [Compound 57, 5-{7-methoxy-2-methyl-2H-pyrazolo[3,4-c]pyridin-5-yl}-2-{6-[1-(propan-2-yl)azetidin-3-yl]pyridazin-3-yl}phenol], the half-maximal effective concentration (EC50) lay within 50 to 500 nM.

In turn, `CCN1CC(c2ccc(-c3ccc(-c4cc5cn(C)nc5c(O)n4)cc3O)nn2)C1` [Compound 53, 5-{4-[6-(1-ethylazetidin-3-yl)pyridazin-3-yl]-3-hydroxyphenyl}-2-methyl-2H-pyrazolo[3,4-c]pyridin-7-ol] registered a half-maximal effective concentration (EC50) of 500 to 1000 nM.

Compound `Cc1cc(-c2ccc(-c3ccc(C4CNC4)nn3)c(O)c2)cc2cn(C)nc12` [Compound 6, 2-(6-(azetidin-3-yl)pyridazin-3-yl)-5-(2,7-dimethyl-2H-indazol-5-yl)phenol hydrochloride] displayed an EC50 of 500 to 1000 nM.

Turning to `Cc1cn2cc(-c3cc(O)c(-c4ccc(C5CNC5)nn4)cc3F)cc(F)c2n1` [Compound 8, 2-[6-(azetidin-3-yl)pyridazin-3-yl]-4-fluoro-5-{8-fluoro-2-methylimidazo[1,2-a]pyridin-6-yl}phenol], the EC50 is ≥ 1000 nM.

The compound `Cc1cn2cc(-c3ccc(-c4ccc(C5CNC5)nn4)c(O)c3)cc(C(F)(F)F)c2n1` [Compound 5, 2-[6-(azetidin-3-yl)pyridazin-3-yl]-5-[2-methyl-8-(trifluoromethyl)imidazo[1,2-a]pyridin-6-yl]phenol] displayed an EC50 of 50 to 500 nM.

Take `COc1nc(-c2ccc(-c3ccc(C4CN(C5CCOCC5)C4)nn3)c(O)c2)cc2cn(C)nc12` [Compound 58, 5-{7-methoxy-2-methyl-2H-pyrazolo[3,4-c]pyridin-5-yl}-2-{6-[1-(oxan-4-yl)azetidin-3-yl]pyridazin-3-yl}phenol]: the 50% effective concentration (EC50) was in the range of 50 to 500 nM.

In turn, `Cc1cn2cc(-c3ccc(-c4ccc(C5CN(C)C5)nn4)c(O)c3)ccc2n1` [Compound 14, 2-[6-(1-methylazetidin-3-yl)pyridazin-3-yl]-5-{2-methylimidazo[1,2-a]pyridin-6-yl}phenol] registered a concentration giving a half-maximal response (EC50) of 500 to 1000 nM.

Turning to `CCc1cc(-c2ccc(-c3ccc(C4CN(CC)C4)nn3)c(O)c2)nc2cn(C)nc12` [Compound 60, 5-{7-ethyl-2-methyl-2H-pyrazolo[4,3-b]pyridin-5-yl}-2-[6-(1-ethylazetidin-3-yl)pyridazin-3-yl]phenol], the half-maximal effective concentration (EC50) is ≥ 1000 nM.

As for `Cc1cc(-c2ccc(-c3ccc(C4CN(C5CCOCC5)C4)nn3)c(O)c2)nc2cn(C)nc12` [Compound 61, 5-{2,7-dimethyl-2H-pyrazolo[4,3-b]pyridin-5-yl}-2-{6-[1-(oxan-4-yl)azetidin-3-yl]pyridazin-3-yl}phenol], the EC50 is ≥ 1000 nM.

For the origin of these results see US20250042879A1, “HETEROCYCLIC SUBSTITUTED 1,3,4-THIADIAZOLE AND PYRIDAZINE COMPOUNDS AND METHODS OF USING THE SAME” (Rgenta Therapeutics, Inc., priority 2021, published 2025).
